Assay results from the NIST ThermoML archive (doi:10.1021/je0601457).
± gives the expanded uncertainty stated by the source.

Assay: xn = mol fraction of the nth substance listed
Details: linear displacement

In the case of `COc1cnccn1` [methoxypyrazine] + O=C=O, the mass density (294.35 K, Liquid, x1 = 0.107) is reported as 802 ± 32 kg/m3, the mass density (294.55 K, Liquid, x1 = 0.129) is reported as 922 ± 39 kg/m3 and the mass density (295.15 K, Liquid, x1 = 0.069) is reported as 809 ± 32 kg/m3. The mass density (295.15 K, Liquid, x1 = 0.919) was 1033 ± 42 kg/m3, the mass density (295.25 K, Liquid, x1 = 0.015) was 726 ± 29 kg/m3 and the mass density (295.25 K, Liquid, x1 = 0.039) was 780 ± 31 kg/m3. For the same compound, the mass density (295.75 K, Liquid, x1 = 0.207) was 911 ± 38 kg/m3, the mass density (295.75 K, Liquid, x1 = 0.379) was 929 ± 37 kg/m3 and the mass density (296.35 K, Liquid, x1 = 0.025) was 797 ± 32 kg/m3. For the same compound, the mass density (296.85 K, Liquid, x1 = 0.232) was 981 ± 39 kg/m3, the mass density (297.15 K, Liquid, x1 = 0.919) was 1109 ± 44 kg/m3 and the mass density (298.15 K, Liquid, x1 = 0.379) was 934 ± 37 kg/m3. It also gave a mass density (299.55 K, Liquid, x1 = 0.015) of 749 ± 30 kg/m3, a mass density (299.95 K, Liquid, x1 = 0.919) of 1063 ± 43 kg/m3 and a mass density (303.35 K, Liquid, x1 = 0.025) of 778 ± 31 kg/m3. The mass density (303.75 K, Liquid, x1 = 0.015) was 718 ± 29 kg/m3, the mass density (304.35 K, Liquid, x1 = 0.007) was 679 ± 27 kg/m3 and the mass density (305.95 K, Liquid, x1 = 0.919) was 1097 ± 44 kg/m3. The mass density (306.95 K, Liquid, x1 = 0.207) was 945 ± 38 kg/m3, the mass density (307.15 K, Liquid, x1 = 0.069) was 843 ± 34 kg/m3 and the mass density (307.55 K, Liquid, x1 = 0.129) was 920 ± 37 kg/m3. The mass density (307.95 K, Liquid, x1 = 0.039) was 778 ± 31 kg/m3, the mass density (310.65 K, Liquid, x1 = 0.107) was 860 ± 34 kg/m3 and the mass density (311.95 K, Liquid, x1 = 0.637) was 1122 ± 45 kg/m3. It also gave a mass density (312.55 K, Liquid, x1 = 0.379) of 1012 ± 41 kg/m3, a mass density (313.55 K, Liquid, x1 = 0.025) of 696 ± 28 kg/m3 and a mass density (314.15 K, Liquid, x1 = 0.232) of 987 ± 40 kg/m3. The mass density (317.85 K, Liquid, x1 = 0.919) was 1085 ± 43 kg/m3, the mass density (326.85 K, Liquid, x1 = 0.129) was 864 ± 35 kg/m3 and the mass density (328.45 K, Liquid, x1 = 0.207) was 906 ± 36 kg/m3. For the same compound, the mass density (330.65 K, Liquid, x1 = 0.379) was 982 ± 39 kg/m3, the mass density (332.45 K, Liquid, x1 = 0.232) was 948 ± 38 kg/m3 and the mass density (332.65 K, Liquid, x1 = 0.637) was 1097 ± 44 kg/m3. For the same compound, the mass density (332.65 K, Liquid, x1 = 0.919) was 1063 ± 43 kg/m3, the mass density (332.85 K, Liquid, x1 = 0.107) was 794 ± 32 kg/m3 and the mass density (348.55 K, Liquid, x1 = 0.207) was 866 ± 35 kg/m3. For the same compound, the mass density (348.65 K, Liquid, x1 = 0.379) was 958 ± 38 kg/m3, the mass density (348.95 K, Liquid, x1 = 0.919) was 1050 ± 42 kg/m3 and the mass density (354.15 K, Liquid, x1 = 0.232) was 902 ± 36 kg/m3. The mass density (354.35 K, Liquid, x1 = 0.637) was 1070 ± 43 kg/m3, the mass density (366.45 K, Liquid, x1 = 0.379) was 933 ± 37 kg/m3 and the mass density (367.35 K, Liquid, x1 = 0.637) was 1055 ± 43 kg/m3. It also gave a mass density (367.65 K, Liquid, x1 = 0.207) of 824 ± 33 kg/m3 and a mass density (368.95 K, Liquid, x1 = 0.232) of 864 ± 35 kg/m3.

For `CC(=O)c1cnccn1` [2-acetylpyrazine] + O=C=O, the mass density (294.75 K, Liquid, x1 = 0.007) was 799 ± 32 kg/m3, the mass density (296.15 K, Liquid, x1 = 0.025) was 758 ± 30 kg/m3 and the mass density (302.35 K, Liquid, x1 = 0.025) was 790 ± 32 kg/m3. The mass density (302.35 K, Liquid, x1 = 0.054) was 922 ± 37 kg/m3, the mass density (303.35 K, Liquid, x1 = 0.007) was 724 ± 29 kg/m3 and the mass density (306.25 K, Liquid, x1 = 0.081) was 946 ± 38 kg/m3. It also gave a mass density (309.45 K, Liquid, x1 = 0.138) of 1276 ± 53 kg/m3, a mass density (310.35 K, Liquid, x1 = 0.054) of 837 ± 34 kg/m3 and a mass density (311.05 K, Liquid, x1 = 0.161) of 938 ± 38 kg/m3. It also gave a mass density (312.75 K, Gas, x1 = 0.007) of 601 ± 24 kg/m3, a mass density (312.95 K, Liquid, x1 = 0.114) of 1092 ± 44 kg/m3 and a mass density (313.15 K, Liquid, x1 = 0.194) of 954 ± 44 kg/m3. The mass density (313.65 K, Gas, x1 = 0.081) was 911 ± 37 kg/m3, the mass density (314.35 K, Liquid, x1 = 0.138) was 1258 ± 53 kg/m3 and the mass density (314.45 K, Gas, x1 = 0.025) was 815 ± 33 kg/m3. For the same compound, the mass density (321.25 K, Gas, x1 = 0.054) was 785 ± 31 kg/m3, the mass density (321.45 K, Liquid, x1 = 0.161) was 918 ± 41 kg/m3 and the mass density (321.95 K, Liquid, x1 = 0.194) was 939 ± 38 kg/m3. The mass density (322.05 K, Liquid, x1 = 0.295) was 1090 ± 45 kg/m3, the mass density (322.25 K, Liquid, x1 = 0.138) was 1238 ± 50 kg/m3 and the mass density (323.05 K, Liquid, x1 = 0.114) was 1061 ± 46 kg/m3. It also gave a mass density (332.55 K, Liquid, x1 = 0.448) of 1063 ± 43 kg/m3, a mass density (332.75 K, Liquid, x1 = 0.138) of 1216 ± 50 kg/m3 and a mass density (332.85 K, Gas, x1 = 0.054) of 739 ± 30 kg/m3. For the same compound, the mass density (333.45 K, Liquid, x1 = 0.194) was 920 ± 37 kg/m3, the mass density (333.45 K, Liquid, x1 = 0.295) was 1014 ± 41 kg/m3 and the mass density (334.45 K, Gas, x1 = 0.081) was 856 ± 35 kg/m3. The mass density (334.95 K, Liquid, x1 = 0.114) was 1023 ± 41 kg/m3, the mass density (337.95 K, Liquid, x1 = 0.161) was 887 ± 36 kg/m3 and the mass density (340.45 K, Gas, x1 = 0.025) was 718 ± 29 kg/m3. For the same compound, the mass density (343.75 K, Liquid, x1 = 0.295) was 998 ± 40 kg/m3, the mass density (345.75 K, Liquid, x1 = 0.138) was 1187 ± 48 kg/m3 and the mass density (346.35 K, Liquid, x1 = 0.944) was 1013 ± 41 kg/m3. For the same compound, the mass density (348.05 K, Liquid, x1 = 0.448) was 1037 ± 41 kg/m3, the mass density (348.55 K, Liquid, x1 = 0.114) was 993 ± 40 kg/m3 and the mass density (348.75 K, Gas, x1 = 0.054) was 702 ± 28 kg/m3. For the same compound, the mass density (351.15 K, Liquid, x1 = 0.194) was 892 ± 36 kg/m3, the mass density (353.55 K, Gas, x1 = 0.081) was 807 ± 33 kg/m3 and the mass density (353.75 K, Liquid, x1 = 0.161) was 863 ± 36 kg/m3. For the same compound, the mass density (356.05 K, Liquid, x1 = 0.295) was 979 ± 40 kg/m3, the mass density (360.95 K, Liquid, x1 = 0.944) was 996 ± 40 kg/m3 and the mass density (363.05 K, Liquid, x1 = 0.138) was 1148 ± 46 kg/m3. The mass density (364.85 K, Liquid, x1 = 0.114) was 945 ± 38 kg/m3, the mass density (366.25 K, Liquid, x1 = 0.448) was 1007 ± 40 kg/m3 and the mass density (367.85 K, Liquid, x1 = 0.194) was 861 ± 35 kg/m3. The mass density (368.75 K, Liquid, x1 = 0.295) was 956 ± 39 kg/m3, the mass density (368.85 K, Gas, x1 = 0.025) was 628 ± 25 kg/m3 and the mass density (369.55 K, Gas, x1 = 0.081) was 772 ± 32 kg/m3. The mass density (370.85 K, Liquid, x1 = 0.161) was 832 ± 34 kg/m3, the mass density (371.05 K, Liquid, x1 = 0.944) was 992 ± 40 kg/m3 and the mass density (371.25 K, Gas, x1 = 0.054) was 648 ± 26 kg/m3.
